Here are results for 2 compounds from patent US20120058198A1, “METHODS FOR TREATING AND PREVENTING PNEUMONIA AND VENTILATOR-ASSOCIATED TRACHEOBRONCHITIS” (PULMATRIX, INC., priority 2009, published 2012).

Experiment [1] deals with Serotype 3 Streptococcus pneumoniae. Description: Mouse S. pneumoniae infection model, nebulized calcium:sodium formulations 2 hours before infection. It is filed as in vivo. The conditions noted are these: ampicillin synergy study; nebulized 2 h before infection; ~0.72 mg Ca/kg, ampicillin ~3 mg/kg. On the procedure:
Unless otherwise stated, exposure times were 3 minutes in duration. […] CFU were enumerated the following day.

A further experiment has as its system bacteria. Description: Pass through assay, calcium chloride dose dependence (bacterium not named). To be noted: amount delivered to mimetic, between the […] and […] solutions; from other analyses. Type of experiment: cell-based. The procedure: In these studies, the number of exposures via nebulization was different, making direct comparisons difficult. […] In this study, a single dose of each formulation was delivered to the apical surface of sodium alginate mimetic and bacteria were added immediately after exposure. […] In contrast, the 0.12M and 0.38M treatments had no effect.
All of the formulations tested above were formulated in isotonic saline. Thus, the inhibitory effects seen could be caused by the dual action of sodium and calcium ions in concert or alternatively, the effect could be driven entirely by calcium. To differentiate between these hypotheses, we tested additional calcium formulations based in water rather than saline.

For `CC1(C)S[C@@H]2[C@H](NC(=O)[C@H](N)c3ccccc3)C(=O)N2[C@H]1C(=O)O` [ampicillin], the “reduction in lung bacterial titers relative to saline control” value in experiment [1] worked out at 33 fold. For the compound `[Ca+2].[Cl-].[Cl-]` [calcium chloride], the “critical concentration of calcium needed for the inhibition of bacteria” value in the experiment with bacteria is reported as 3-4 μg of calcium per cm^2.
